For one data set, the system named is Phakopsora pachyrhizi. Nature of the data set: Example U: in vivo preventive test on Phakopsora test (soybeans), comparison vs. known compounds. The conditions noted are these: rate of application 5 ppm, evaluated 7 days after inoculation. The method, then:
Example U: In Vivo Preventive Test on Phakopsora Test (Soybeans); Comparison of Compounds According to the Invention Vs. Known Compounds
After the spray coating has dried on, the plants are inoculated with an aqueous spore suspension of the causal agent of soybean rust (Phakopsora pachyrhizi) and stay for 24 h without light in an incubation cabinet at approximately 24° C. and a relative atmospheric humidity of 95%.
The plants remain in the incubation cabinet at approximately 24° C. and a relative atmospheric humidity of approximately 80% and a day/night interval of 12 h.
The test is evaluated 7 days after the inoculation.

Another data set relates to Venturia inaequalis. Nature of the data set: Example T: in vivo preventive test on Venturia test (apples), comparison vs. known compounds. The conditions noted are these: rate of application 10 ppm, evaluated 10 days after inoculation. The method, then:
Example T: In Vivo Preventive Test on Venturia Test (Apples) Comparison of Compounds According to the Invention Vs. Known Compounds
The plants are then placed in a greenhouse at approximately 21° C. and a relative atmospheric humidity of approximately 90%.
The test is evaluated 10 days after the inoculation.

Data set [1] is described as follows: LogP by HPLC on reversed phase columns (EEC directive 79/831 Annex V.A8). The class given is physicochemical. Conditions: for LogP: method [a]: LC-UV, acidic range, 0.1% formic acid in water and acetonitrile as eluent. The method, then: [table] If more than one Log P value is available within the same method, all the values are given and separated by “+”. […] Lambda-max-values were determined using UV-spectra from 200 nm to 400 nm and the peak values of the chromatographic signals.

The results in this text go back to patent US20180057467A1, “NOVEL TRIAZOLE DERIVATIVES” (BAYER CROPSCIENCE AKTIENGESELLSCHAFT, priority 2015, published 2018).

As usually defined, the chromatographic logP is lipophilicity estimated from chromatographic retention. Low values mean a more hydrophilic compound, high ones a more lipophilic compound.

Each structure is given as a SMILES string.

With `OC(Cn1cncn1)(c1ccc(F)cc1)C1(Oc2ccc(Cl)cc2Cl)CC1` (stereo not drawn) [DE-A 3522440 Ex. I-44, reference compound], the Efficacy in % is 15% with Phakopsora pachyrhizi and 0% in the data set on Venturia inaequalis. On to `OC(Cn1cncn1)(c1ccc(F)cc1F)C1(Oc2c(F)cc(Br)cc2F)CC1` (racemic) [Example I-03], for which the Efficacy in % in the data set on Phakopsora pachyrhizi stood at 89%; in the data set on Venturia inaequalis, 93%. The same molecule showed a chromatographic logP in data set [1] of 3.7. Regarding `OC(Cn1cncn1)(c1ccc(F)cc1F)C1(Oc2c(F)cc(Cl)cc2F)CC1` (racemic) [Example I-01], the Efficacy in % in the data set on Phakopsora pachyrhizi was 95%; with Venturia inaequalis, 98%. The molecule further had a chromatographic logP in data set [1] of 3.57. Turning to `OC(Cn1cncn1)(c1ccc(F)cc1F)C1(Oc2ccccc2)CC1` (stereo not drawn) [DE-A 3522440 Ex. I-134, reference compound], the Efficacy in % is recorded as 0% with Phakopsora pachyrhizi and 76% in the data set on Venturia inaequalis. As to `Fc1ccc(C2(C3(Oc4c(Cl)cc(Cl)cc4Cl)CC3)CO2)c(F)c1` (racemic) [Example V-07], in data set [1], the LogP was 5.56^[a]. The same measure, in the same setting: under `O=C(c1ccc(F)cc1F)C1(Oc2c(Cl)cc(OC(F)(F)F)cc2Cl)CC1` [IV-12] stands 5.39^[a]; under `OC(Cn1cncn1)(c1ccc(F)cc1F)C1(Oc2c(Cl)cc(C(F)(F)F)cc2Cl)CC1` (racemic) [Example I-10], 4.46^[a]. Consider `OC(Cn1cncn1)(c1ccc(F)cc1F)C1(Oc2c(F)ccc(F)c2Cl)CC1` (racemic) [Example I-29], for which, in data set [1], the LogP was 3.42^[a]. Still for that read-out and setting: under `COC(Cn1cncn1)(c1ccc(F)cc1F)C1(Oc2c(F)ccc(Cl)c2F)CC1` (racemic) [Example I-17] stands 3.85^[a].
